“Also recorded” adds a separate entry of the source.
How the values were obtained:
[1] = test system: patients with histologically proven NASH; test: Multicenter randomized double-blind placebo-controlled clinical study of 28-35 mg/kg/day UDCA for treating NASH; format: in vivo, human; details: for Normalization ALAT: percent pts with normalized ALAT at 12 months; for Normalization ASAT: percent pts with normalized ASAT at 12 months
Protocol: A multicenter randomized double-blind placebo-controlled study was conducted to examine the efficacy and tolerability of 28-35 mg/kg/day UDCA in patients with histologically proven NASH, ALAT and/or ASAT greater than 50 IU/L. A total of 120 patients were planned to receive either UDCA or placebo for a period of 12 months. Treatment was administered with meals. During the study, liver biochemistry, tolerability and side effects were monitored regularly. During the study, overweight and obese patients were encouraged to lose weight by following a hypocaloric diet and to maintain a certain level of physical activity. Drug treatments taken by patients for associated medical conditions were allowed. At the end of the 12th month, patients underwent an end of study evaluation and study treatments were stopped.
Inclusion criteria: age of patients higher than 18 years; liver biopsy compatible with NASH: presence of steatosis >20% associated with hepatocyte ballooning and/or hepatic lobule necrosis during the last 18 months; ALAT or ASAT levels >50 IU/L at the screening visit (with at least 3 elevated transaminase levels in the last 12 months)
Exclusion criteria: hepatic biopsy done before the last 18 months; no more than one normal value of transaminases during the last 12 months; patient was treated by UDCA during the last 12 months; loss of weight of more than 15% between the time of the hepatic biopsy and the screening; alcohol consumption higher than 20 g/day for women or higher than 30 g/day for men; presence of other causes of hepatitis such as chronic hepatitis B or C, increased serum ferritin associated with homozygosity for the C282Y mutation, primary biliary cirrhosis, primary sclerosing cholangitis, well documented autoimmune hepatitis (specific autoantibody, hpergammaglobulinaemia, histology-compatible), alpha-1 anti-trypsin deficiency, Wilson's disease, HIV infection; secondary causes of NASH: long term amiodarone-induced NASH, corticotherapy, obesity surgery within the last 2 years, Tamoxifen® treatment; Child's B or Child's C grade cirrhosis; presence of liver carcinoma; currently treated or treated during the past three years of hepatic biopsy with rosilitazone or pioglitazone; treatment with vitamin E during the past six months before screening; pregnant or breastfeeding women; unavailable histology slides for reading by the central laboratory.
Discontinuation criteria: Subjects were free to discontinue the study at any time for any or for no reason, and without prejudice to further treatment. Patients who withdrew subsequent to the pre-study evaluations but before receiving any study medication were not considered dropouts and were not included in the database. Patients who were included in the study and received at least one dose of study medication were included in the database and considered part of the safety population. Patients who were included in the study and received a dose of study medication and for whom at least one post-baseline evaluation was available were analyzed as part of the Intent-to-Treat (ITT) population. Patients from the ITT population who completed the study without any major protocol violations were analyzed as part of the Per Protocol (PP) population.
Main Endpoints: The primary endpoint was percent change in ALAT at 12 months vs. baseline. The secondary endpoints included: percent change in ASAT at 12 months vs. baseline; percent change Gamma-GT at 12 months vs. baseline; percent pts with normalized ALAT at 12 months; percent pts with normalized ASAT at 12 months; change in fibrosis index (FibroTest); change in inflammation index (Actitest); change in metabolic syndrome markers; and safety.
FibroTest is a non-invasive blood test that provides a quantitative estimate of liver fibrosis and can be used to predict advanced fibrosis. ActiTest is a non-invasive blood test that is used to assess the activity of liver disease by measuring the degree of necrosis and inflammation. […]

NASH patients = details: one year, 13-15 mg/kg/day; cited from earlier work
patients with NASH [2] = details: two years, 13-15 mg/kg/day; cited from earlier work
patients with NASH [3] = details: 15 mg/kg/day; cited from earlier work
[4] = cited from earlier work
adult patients with PSC = details: cited from earlier work
[5] = 28-35 mg/kg/day UDCA in NASH patients
[6] = mean change at 12 months vs. baseline, ITT, 30 mg/kg/day
[7] = by the end of the study, n=76, 28-30 mg/kg/day

For `C[C@H](CCC(=O)O)[C@H]1CC[C@H]2[C@@H]3[C@@H](O)C[C@@H]4C[C@H](O)CC[C@]4(C)[C@H]3CC[C@]12C` [UDCA, 3α, 7β-dihydroxy-5β-cholan-24-oic acid], the “Asthenia and RUQP” value [1, 5] was “symptomatic improvement”, the Safety [1, 5] was “without any significant safety concerns” and the “ActiTest (effect on liver inflammation) change vs. baseline, Mean” value ([1]; ITT, at 6 months) was −31.41%. For the same compound, the “FibroTest (effect on fibrosis) change vs. baseline, Mean” value ([1]; ITT, at 6 months) was −9.15%, the “ActiTest (effect on liver inflammation) change vs. baseline, Mean” value ([1]; ITT, at 12 months) was −30.97% and the “FibroTest (effect on fibrosis) change vs. baseline, Mean” value ([1]; ITT, at 12 months) was −8.11%. For the same compound, the “ActiTest (effect on liver inflammation) change vs. baseline, Mean” value ([1]; PP, at 6 months) was −31.23%, the “FibroTest (effect on fibrosis) change vs. baseline, Mean” value ([1]; PP, at 6 months) was −9.68% and the “ActiTest (effect on liver inflammation) change vs. baseline, Mean” value ([1]; PP, at 12 months) was −27.33%. The “FibroTest (effect on fibrosis) change vs. baseline, Mean” value ([1]; PP, at 12 months) was −5.40%, the “GI symptoms (diarrhea, abdominal pain, motility problems) frequency versus placebo group” value ([1]; UDCA treatment group vs placebo group) was −3 × and the Glycemia ([1]; UDCA treatment group, increased in placebo group (p=0.023)) was “remained stable”. For the same compound, the HbA1c versus placebo ([1]; at 6 and 12 months (p<0.05)) was “lower”, the Insulinemia versus placebo ([1]; at 12 months (p=0.038)) was “lower” and the “Fibrosis levels compared to placebo group” value ([1]; both ITT and PP populations) was “significant improvement”. The “Liver inflammation levels compared to placebo group” value ([1]; both ITT and PP populations) was “significant improvement”, the “Mild diarrhea, abdominal pain, and gastrointestinal motility disorders versus placebo group” value ([1]; human, in vivo) was “more” and the “Time of maximum effect, percent change from baseline ALAT” value ([1]; human, in vivo) was 3 months. The “Time of maximum effect, percent change from baseline ASAT” value ([1]; human, in vivo) was 3 months, the “Time of maximum effect, percent change from baseline in Gamma-GT” value ([1]; human, in vivo) was 6 months and the “Δ % ALAT (SD)” value [1, 6] was −28±55%. For the same compound, the “Δ % ASAT (SD)” value [1, 6] was −8±59%, the “Δ % Gamma-GT (SD)” value [1, 6] was −51±28% and the “Individual effect on fibrosis: Fibrosis Decreased” value ([1]; percent of patients) was 35.7%. For the same compound, the “Individual effect on fibrosis: Fibrosis Increased” value ([1]; percent of patients) was 8.9%, the “Individual effect on fibrosis: Fibrosis Stable” value ([1]; percent of patients) was 55.4% and the “Normalization ALAT” value ([1]; ITT) was 25%. For the same compound, the “Normalization ALAT” value ([1]; PPP) was 29%, the “Normalization ASAT” value ([1]; ITT) was 32% and the “Normalization ASAT” value ([1]; PPP) was 36%. For the same compound, the Fibrosis or inflammation (NASH patients) was “did not change”, the “Liver enzyme and steatosis levels” value (NASH patients) was “improved” and the “Efficacy, UDCA treatment group versus placebo group” value (patients with NASH [2]) was “did not show any differences”. The “ALAT and Gamma-GT levels” value (patients with NASH [3]) was “significant reduction”, the “Steatosis, necroinflammation, or fibrosis” value (patients with NASH [3]) was “no improvements” and the Solubility in chloroform ([4]; chloroform) was “slightly soluble”. For the same compound, the Solubility in ethanol ([4]; ethanol) was “freely soluble”, the Solubility in ether ([4]; ether) was “sparingly soluble” and the “Solubility in glacial acetic acid” value ([4]; glacial acetic acid) was “freely soluble”. For the same compound, the “Solubility in intestinal fluids” value ([4]; intestinal fluids, compared with water) was “more soluble”, the Solubility in water ([4]; water) was “virtually insoluble; also recorded: practically insoluble” and the “Risk of a primary endpoint versus placebo” value (adult patients with PSC; adjusted for baseline stratification characteristics (p=0.011)) was 2.2 times. The “Patients who had reached one of the pre-established clinical endpoints (number)” value (adult patients with PSC; [7]) was 28 patients, the “Patients who had reached one of the pre-established clinical endpoints (percent)” value (adult patients with PSC; [7]) was 37% and the “Amount of decrease of ASAT and AP levels versus placebo” value (adult patients with PSC; during therapy (p<0.01)) was “greater”. The “Adjusted relative risk for death or transplantation” value (adult patients with PSC; versus placebo (p=0.029)) was 3.3 and the Serious adverse events (adult patients with PSC; vs. 43% placebo, p=0.03) was 61%.
